# Experimental data reported in publication PMC3242598, “Phase I study of BIBF 1120 with docetaxel and prednisone in metastatic chemo-naive hormone-refractory prostate cancer patients” (British Journal of Cancer, 2011).
# Where two headings read alike, the source gives them in different places.
# Legend:
# [1] = tested on: patients with metastatic, chemo-naive, hormone-refractory prostate cancer (HRPC); assay: Dose escalation: dose-limiting toxicities and maximum tolerated dose; format: in vivo
# Procedure: On days 2–21 (21-day cycle), patients took an oral dose of BIBF 1120 twice daily. Patients were instructed to swallow BIBF 1120 with water at the same time every day to ensure a dose interval of ∼12 h. On day 2 of treatment cycles (TCs) 1 and 2, patients only took the morning dose of BIBF 1120, omitting the evening dose to allow PK evaluation. All patients were premedicated with oral corticosteroids (dexamethasone 8 mg per os or methylprednisolone 32 mg per os, at 12 h and 1 h before docetaxel infusion) and subsequently took 5 mg prednisone oral BID throughout the trial. On day 1 of each TC, patients received an IV infusion of 75 mg m^−2 docetaxel administered over 1 h.
# Based on prior clinical experience, the starting dose of BIBF 1120 in TC 1 was 100 mg BID; doses were escalated in 50 mg increments until the occurrence of a dose-limiting toxicity (DLT). Recognised DLTs included the occurrence of non-haematological related toxicity grade ⩾3 with the exception of alopecia, nail modifications, acute nausea or vomiting and isolated γ-glutamyl transpeptidase elevations. Alternatively, the occurrence of uncomplicated grade 4 neutropenia for >7 days, neutropenia grade ⩾3 associated with fever ⩾38.5 °C, or grade 4 thrombopenia or grade 3 thrombopenia associated with bleeding in […], was defined as a DLT. […]
# VEGFR = tested on: VEGFR; parameters: method as in Hilberg et al, 2008; conditions: after a 1-h exposure; ref Hilberg et al, 2008; cited from earlier work
# [2] = tested on: advanced lung cancer patients; parameters: method as in Reck et al, 2011; conditions: phase II, ref Reck et al, 2011, cited from earlier work
# [3] = tested on: human prostate cancer xenografts; parameters: method as in Hilberg et al, 2008; conditions: human prostate cancer xenografts in athymic mice; ref Hilberg et al, 2008; cited from earlier work
smiles,measurement,setting,value
COC(=O)c1ccc2c(c1)NC(=O)/C2=C(\Nc1ccc(N(C)C(=O)CN2CCN(C)CC2)cc1)c1ccccc1 [BIBF 1120],Maximum tolerated dose (MTD),[1]; continuous daily oral BIBF 1120 + docetaxel 75 mg m^−2 every 3 weeks + prednisone 5 mg BID,250 mg BID
same,DLTs at dose levels <250 mg BID,[1]; in vivo,no patients experienced DLTs
same,Duration of block of VEGFR activation,VEGFR,> 32 h
same,Frequency of CTCAE grade 3/4 liver enzyme elevations,[2]; 250 mg BID monotherapy,~20%
same,Frequency of CTCAE grade 3/4 liver enzyme elevations,[2]; 150-mg BID monotherapy,none
same,Antitumour activity in vivo,[3],potent antitumour activity
